Measured values as given in patent US20050192228A1, “Tripeptide derivatives for the treatment of neurodegenerative diseases” (priority 2001, published 2005).

How the values were obtained:
Type in all cases: in vivo, Male Wistar rats
[1] = test system: glucocorticoid receptors of the hippocampus; assay: Dexamethasone model: determination of the corticoide receptors in the hippocampus (3H-dexamethasone binding); details: for Type I receptors in Femtomol/mg protein: dexamethasone 50 mg/kg/day, hippocampi removed after the last learning session; for effect on number of receptors of hippocampus neurons (in words): dexamethasone model
Procedure: (§1) 40 rats were kept and operated as described above. Then, they were divided into the following groups: • one group of 10 rats which received 5 μl/day of physiological serum • one group of 30 rats which received 50 mg/kg/day dexamethasone, dissolved in physiological serum.
After the last learning session at 10.00 a.m., the rats were sacrificed by means of decapitation, and the hippocampi were quickly removed and put on a plate cooled to 0° C. The number of glucocorticoid receptors was determined by a binding method using a labeled corticoid and a specific inhibitor to the binding of the corticoid to the receptor (here a total agonist). The protein content was measured by Lowry's method.
The hippocampi of each rat were homogenized in 2 ml of sodium EDTA Glycerol molybdate buffer. The homogenate was centrifugated at 100.000 g for 60 minutes. An aliquot of the supernatant was diluted in distilled water, and the protein content was measured by Lowry's method.
The rest of the supernatant was divided into three parts of 0.2 ml each. Increasing concentrations (25, 50 and 75 nmoles/ml) of dexamethasone 3H (Amersham 50 Ci/mM) were added to these parts. Three other preparations were carried out under the same conditions, while a saturating quantity of a total […] of the receptors (RU 28362) was added to obtain a non-specific binding of the labeled dexamethasone.
After one night of incubation at 4° C., charcoal/dextran was added to absorb […] dexamethasone. After centrifugation, the radioactivity of the supernatant was measured by liquid scintillation.
The radioactive quantities of the dexamethasone bound to the protein content are recorded. Results are expressed in femtomoles of the labeled corticoid bound to the receptor per mg of proteins.

[2] = test system: rats given Gp120 (Gp120 model); assay: Gp120 model: sound avoidance conditioning (pole climbing test); details: for percentage of avoidance, Day 0 / percentage of avoidance, Day 1 / percentage of avoidance, Day 2 / percentage of avoidance, Day 3 / percentage of avoidance, Day 4: Gp120 10 nM/kg/day for 5 days; for percentage of avoidance, Day 0 / percentage of avoidance, Day 1 / percentage of avoidance, Day 2 / percentage of avoidance, Day 3 / percentage of avoidance, Day 4 / AUC (average area under the learning curve per day): treatment 10 mg/kg/day for 5 days; for percentage of avoidance, Day 0: learning Day 0; for percentage of avoidance, Day 1: learning Day 1; for percentage of avoidance, Day 2: learning Day 2; for percentage of avoidance, Day 3: learning Day 3; for percentage of avoidance, Day 4: learning Day 4; for effect on learning parameters (in words) / AUC (average area under the learning curve per day): Gp120 model; for AUC (average area under the learning curve per day): maximum value 100
Text: 40 rats were slightly anesthetized by ether, an incision was made into the skin of the skull, and the skull was pierced by means of a dental burr. A metal needle was stereotaxically directed to the lateral ventricle, and then fixed by means of dental cement. Every day of the experiment, the patency of the needle was controlled.
Three days after introducing the needle (recovery from the postoperative shock) the non-anesthetized animals were divided into 2 groups: • one group of 10 rats to which 5 μl of physiological serum was injected • one group of 30 rats to which 5 μl of physiological serum containing Gp120 in an amount of 10 nM/kg was injected
This administration was repeated every day for a period of five days.
Ten days after the last administration of Gp120, the thirty rats were randomly divided into three groups of 10 animals each: • (i) one group of 10 rats received 1 ml/kg/day of normal saline (controls) for a period of 5 days. • (ii) one group of 10 rats received 10 mg/kg/day of Cinnamoyl-Gly-L-Phe-L-PrONH2 dissolved in normal saline for a period of 5 days. • (iii) one group of 10 rats received 10 mg/kg/day of tacrine peros for a period of 5 days
(§2) During the last five days of treatment, the rats were placed under the common learning conditions of the three models between 10.00 a.m. and 11.00 a.m. (see below).
(§3) During the last five days of treatment, at 10.00 a.m. (1 hour after the administration of Cinnamoyl-Gly-Phe-PrONH2), the animals were placed into a learning cage for sound avoidance conditioning (Conditioning avoidance response). The animals learned to climb a pole first to escape from and then to avoid an electric shock. This method was standardized and quantified. (see Le Poncin M., Lafitte J. C., Rapin J. R., Sound Avoidance Conditioning and a Mathematical approach to the description of acquisition performance, Math. Biosciences 59 (1982) 242-268).
(§4) For a period of five days, the animals were placed everyday under these learning conditions for a total of ten tests a day. Results are expressed as percentage of adequate responses, and the kinetics of the responses is represented by a multi-exponential maximum curve.
(§5) The curve maximum represents the learning capacities. The slope of the curve evaluates the learning speed. The area under the curve (AUC) represents a good evaluation of all conditioning parameters. The maximum value of the area under the curve is 500, if the animals show 100% adequate responses as early as Day 0. In fact, an average area under the curve is calculated per day, what amounts to a maximum value of 100. In the absolute control animals, this average area under the curve is equal to 40+/−4.

[3] = test system: hippocampal neurons; assay: Gp120 model: neuronal count in the CA III layers of the hippocampus; details: percentage of the control group, treatment 10 mg/kg/day for 5 days
Procedure: After the last learning session, the rats were sacrificed by means of decapitation, and the brain was isolated and frozen to −80° C. with liquid nitrogen. Cuts of a thickness of 50 μm were obtained in a “cryo-cut”, and the neurons are counted in the CA III layers of the hippocampus under a microscope. The results are expressed as percentage of the control group.

[4] = test system: rats given dexamethasone (dexamethasone model); assay: Dexamethasone model: sound avoidance conditioning; details: for percentage of avoidance, Day 0 / percentage of avoidance, Day 1 / percentage of avoidance, Day 2 / percentage of avoidance, Day 3 / percentage of avoidance, Day 4: dexamethasone 50 mg/kg/day; for percentage of avoidance, Day 0: learning Day 0; for percentage of avoidance, Day 1: learning Day 1; for percentage of avoidance, Day 2: learning Day 2; for percentage of avoidance, Day 3: learning Day 3; for percentage of avoidance, Day 4: learning Day 4; for effect on learning capacity (in words) / AUC (average area under the learning curve per day): dexamethasone model; for AUC (average area under the learning curve per day): maximum value 100
Procedure: as §1, §2, §3, §4, §5

[5] = test system: rats given vincristine (vincristine model); assay: Vincristine model: sound avoidance conditioning; details: for percentage of avoidance, Day 0 / percentage of avoidance, Day 1 / percentage of avoidance, Day 2 / percentage of avoidance, Day 3 / percentage of avoidance, Day 4: vincristine 5 μg/kg/day for 5 days; for percentage of avoidance, Day 0: learning Day 0; for percentage of avoidance, Day 1: learning Day 1; for percentage of avoidance, Day 2: learning Day 2; for percentage of avoidance, Day 3: learning Day 3; for percentage of avoidance, Day 4: learning Day 4; for AUC pro Tag: average area under the learning curve per day, maximum value 100
Procedure: Rats were kept and treated as described above in 3. Then they were divided into the following groups: • one group of 10 rats which received 5 μl/day of physiological serum over a period of 5 days • one group of 30 rats which received 5 μl/day of physiological serum containing 5 μg/kg vincristine over a period of 5 days
A dosage of 5 μg/kg/day causes a 40 to 60% loss of the hippocampal arborization.
After the last administration, the second group of 30 rats was divided at random into three sub-groups and treated as described above in 3.
as §3, §4, §5

[6] = test system: hippocampal arborization; assay: Vincristine model: loss of the hippocampal arborization; details: vincristine 5 μg/kg/day
Procedure: Vincristine is an anticarcinogen that is used as a synchronizing agent. This molecule binds to the spindle of microtubules, thus blocking the cellular multiplication during the metaphase. It is a spindle poison. […] Vincristine binds to these neurofibrils thus causing peripheral neural conduction disorders in patients who are treated for neoplasm. These effects mainly affect the white matter of the axons. […] The repeated ICV administration of vincristine causes a degeneration of the conduction pathways with the appearance of abnormal neurofibrils similar to those observed in Alzheimer's disease. This degeneration mainly affects the periventricular structures. The hippocampi are affected through a decrease of their ramifications, while the cell bodies of the neurons are not altered. […] After this period, a protective layer forms on the glia cells that prevent the diffusion of vincristine from the CSF to the neighboring nerve cells. There is no spontaneously developing Alzheimer's disease in rats that would show the different types of degenerative lesions (beta-amyloid plaques, neurofibrillary and vacuolar degeneration). ICV administration of vincristine, which may cause neurofibrillary degeneration, may be used as a partial animal model of this disease. […]

Row | SMILES | percentage of avoidance, Day 0 [2] [%] | percentage of avoidance, Day 1 [2] | percentage of avoidance, Day 2 [2] | percentage of avoidance, Day 3 [2] | percentage of avoidance, Day 4 [2] | effect on learning parameters (in words) [2] | AUC (average area under the learning curve per day) [2] | Percentage of hippocampal neurons [3] | percentage of avoidance, Day 0 [4] [%] | percentage of avoidance, Day 1 [4] | percentage of avoidance, Day 2 [4] | percentage of avoidance, Day 3 [4] | percentage of avoidance, Day 4 [4] | effect on learning capacity (in words) [4] | AUC (average area under the learning curve per day) [4] | Type I receptors in Femtomol/mg protein [1] | effect on number of receptors of hippocampus neurons (in words) [1] | percentage of avoidance, Day 0 [5] [%] | percentage of avoidance, Day 1 [5] | percentage of avoidance, Day 2 [5] | also measured
1 | C[C@@H]1C[C@H]2[C@@H]3CCC4=CC(=O)C=C[C@]4(C)[C@@]3(F)[C@@H](O)C[C@]2(C)[C@@]1(O)C(=O)CO [dexamethasone] | – | – | – | – | – | – | – | – | – | – | – | – | – | – | – | – | – | – | – | – | decrease in the number of corticoide receptors in the hippocampus ([1]; dexamethasone, dosage and treatment time of this experiment): ~60%
2 | Nc1c2c(nc3ccccc13)CCCC2 [tacrine] | 0 | 5 +/− 2% | **18 +/− 2% | **31 +/− 3% | **42 +/− 4% | partly restores the learning parameters | 19.4 +/− 2.2 | 45 ± 3% | 0 | 5 +/− 2% | 15 +/− 3% | 42 +/− 4% | 52 +/− 4% | does not show any effect | 22.8 +/− 1.3 | 46 ± 5 Femtomol/mg protein | does not show any effect | 0 | 2 +/− 1% | 7 +/− 2% | percentage of avoidance, Day 3 [5]: 19 +/− 2%; percentage of avoidance, Day 4 [5]: 28 +/− 3%; effect on learning capacities (in words) ([5]; vincristine model): does not show an effect; AUC pro Tag ([5]; vincristine model): 11.2 +/− 0.8
3 | NC(=O)[C@@H]1CCCN1C(=O)[C@H](Cc1ccccc1)NC(=O)CNC(=O)C=Cc1ccccc1 [tripeptide derivative, cinnamoyl-glycyl-L-phenylalanyl-L-prolineamide] | 0 | 5 +/− 2% | **18 +/− 2% | **32 +/− 2% | **43 +/− 3% | improvement of the learning capacities | **19.6 +/− 1.8 | *54 ± 3% | 0 | 8 +/− 3% | **28 +/− 3% | **68 +/− 3% | **77 +/− 3% | considerably restores the learning capacity | **36.2 +/− 1.2 | **85 ± 9 Femtomol/mg protein | significant increase of the number of receptors | 0 | 5 +/− 2% | **20 +/− 2% | effect on learning parameters (in words) ([2]; listed as Cinnamoyl-Gly-Phe-ProNH2): partly restores the learning parameters; percentage of avoidance, Day 3 [5]: **45 +/− 3%; percentage of avoidance, Day 4 [5]: **53 +/− 3%; AUC pro Tag ([5]; vincristine model): **24.6 +/− 1.0
4 | CC[C@]1(O)C[C@H]2CN(CCc3c([nH]c4ccccc34)[C@@](C(=O)OC)(c3cc4c(cc3OC)N(C=O)[C@H]3[C@@](O)(C(=O)OC)[C@H](OC(C)=O)[C@]5(CC)C=CCN6CC[C@]43[C@@H]65)C2)C1 [vincristine] | – | – | – | – | – | – | – | – | – | – | – | – | – | – | – | – | – | – | – | – | loss of the hippocampal arborization [6]: 40 to 60%
